The record followed here is patent publication US20240270741A1 (Cogent Biosciences, Inc., priority 2023, published 2024).

Counter-ions that a name gives are not always drawn.

Sequence of FGFR2 (P21802 399-821 limits assumed): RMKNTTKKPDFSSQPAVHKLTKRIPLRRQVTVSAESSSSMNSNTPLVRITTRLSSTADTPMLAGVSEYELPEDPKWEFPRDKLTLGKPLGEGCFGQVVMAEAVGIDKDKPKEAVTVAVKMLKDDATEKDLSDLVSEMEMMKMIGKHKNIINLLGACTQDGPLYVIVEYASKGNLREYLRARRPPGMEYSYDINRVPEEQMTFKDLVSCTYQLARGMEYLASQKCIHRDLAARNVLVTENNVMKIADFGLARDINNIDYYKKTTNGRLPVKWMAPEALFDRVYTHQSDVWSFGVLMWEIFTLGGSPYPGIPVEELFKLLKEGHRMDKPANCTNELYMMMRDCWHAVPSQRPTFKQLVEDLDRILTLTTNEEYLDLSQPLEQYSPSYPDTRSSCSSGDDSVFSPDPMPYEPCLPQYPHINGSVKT

One assay has as its target FGFR2 (Homo sapiens, UniProt P21802). Put plainly: FGFR wild type enzyme assay (HTRF KinEASE-TK), FGFR2. The settings on record: Enz FGFR2 (nM).
For the molecule `N#Cc1cnn2cc(-c3cnn(C4CCNCC4)c3)cc(Sc3ncccn3)c12` [Example 60, 6-(1-(piperidin-4-yl)-1H-pyrazol-4-yl)-4-(pyrimidin-2-ylthio)pyrazolo[1,5-a]pyridine-3-carbonitrile, HCl], the midpoint of inhibition, the IC50, lay at 7 nM.

For `CC(C)Sc1cc(-c2cnn([C@H]3CCCN(CCO)C3)c2)cn2ncc(C#N)c12` [Example 89, 6-[1-[(3S)-1-(2-hydroxyethyl)-3-piperidyl]pyrazol-4-yl]-4-isopropylsulfanyl-pyrazolo[1,5-a]pyridine-3-carbonitrile], the concentration for half-maximal inhibition (IC50) (in general, the concentration at which inhibition is half-maximal) turned out to be 1 nM.

Molecule `N#Cc1cccc(Sc2cc(-c3cnn(C4CCNCC4)c3)cn3ncc(C#N)c23)c1` [Example 69, 4-((3-cyanophenyl)thio)-6-(1-(piperidin-4-yl)-1H-pyrazol-4-yl)pyrazolo[1,5-a]pyridine-3-carbonitrile] registered an IC50 of 8 nM.

Still in this assay, the particulars now being: Enz FGFR2 (nM), FGFR2 wild type enzyme.
`CC(=O)N1CCC(n2ncc(-c3cc(Sc4ccc(F)cn4)c4c(C#N)cnn4c3)c2C)CC1` [Example 306, 6-(1-(1-acetylpiperidin-4-yl)-5-methyl-1H-pyrazol-4-yl)-4-((5-fluoropyridin-2-yl)thio)pyrazolo[1,5-a]pyridine-3-carbonitrile]: inhibition was half-maximal at 6 nM (IC50).

`Cc1c(-c2cc(Sc3ncccc3F)c3c(C#N)cnn3c2)cnn1C1CCN([C@H](C)CO)CC1` [Example 147, (R)-4-((3-fluoropyridin-2-yl)thio)-6-(1-(1-(1-hydroxypropan-2-yl)piperidin-4-yl)-5-methyl-1H-pyrazol-4-yl)pyrazolo[1,5-a]pyridine-3-carbonitrile] yielded a concentration for half-maximal inhibition (IC50) of 2 nM. This IC50 is about 3-fold lower than that of the molecule before.

Take `CO[C@H](C)CN1CCC(n2ncc(-c3cc(Sc4ccccc4C#N)c4c(C#N)cnn4c3)c2C)CC1` [Example 140, (R)-4-((2-cyanophenyl)thio)-6-(1-(1-(2-methoxypropyl)piperidin-4-yl)-5-methyl-1H-pyrazol-4-yl)pyrazolo[1,5-a]pyridine-3-carbonitrile]: the midpoint of inhibition, the IC50, lay at 1 nM.

With `CC(=O)N1C[C@@H]2[C@H](C1)[C@@H]2Cn1ncc(-c2cc(Sc3ncccc3F)c3c(C#N)cnn3c2)c1C` [Example 238, 6-(1-(((1R,5S,6s)-3-acetyl-3-azabicyclo[3.1.0]hexan-6-yl)methyl)-5-methyl-1H-pyrazol-4-yl)-4-((3-fluoropyridin-2-yl)thio)pyrazolo[1,5-a]pyridine-3-carbonitrile], the IC50 was 3 nM. Against the preceding molecule, the IC50 is about 3-fold higher.

In the case of `CC(=O)N1C2CCC1CC(n1ncc(-c3cc(Sc4ncccc4F)c4c(C#N)cnn4c3)c1C)C2` (stereo not drawn) [Example 204, 6-(1-(8-acetyl-8-azabicyclo[3.2.1]octan-3-yl)-5-methyl-1H-pyrazol-4-yl)-4-((3-fluoropyridin-2-yl)thio)pyrazolo[1,5-a]pyridine-3-carbonitrile], the IC50 was found to be 2 nM.

`Cc1c(-c2cc(Sc3ncccc3F)c3c(C#N)cnn3c2)cnn1[C@H]1CC[C@@H](NCC(F)(F)F)CC1` [Example 244, 4-((3-fluoropyridin-2-yl)thio)-6-(5-methyl-1-((1s,4s)-4-((2,2,2-trifluoroethyl)amino)cyclo-hexyl)-1H-pyrazol-4-yl)pyrazolo[1,5-a]pyridine-3-carbonitrile] displayed a 50% inhibitory concentration (IC50) of 2.5 nM.

Consider `Cc1c(-c2cc(Sc3ccccc3C#N)c3c(C#N)cnn3c2)cnn1[C@H]1CC[C@@H](NCc2ccccn2)CC1` [Example 287, 4-((2-cyanophenyl)thio)-6-(5-methyl-1-((1s,4s)-4-((pyridin-2-ylmethyl)amino)cyclohex-yl)-1H-pyrazol-4-yl)pyrazolo[1,5-a]pyridine-3-carbonitrile], for which inhibition was half-maximal at 0.4 nM (IC50).

In the case of `Cc1c(-c2cc(Sc3ncccc3F)c3c(C#N)cnn3c2)cnn1[C@H]1C[C@H](CO)C1` [Example 246, 4-((3-fluoropyridin-2-yl)thio)-6-(1-((1r,3r)-3-(hydroxymethyl)cyclobutyl)-5-methyl-1H-pyrazol-4-yl)pyrazolo[1,5-a]pyridine-3-carbonitrile], the IC50 was determined as 4 nM.

The same assay, now with this note: Enz FGFR2 (nM), FGFR2 wild type enzyme assay.
With `Cc1ccc(-c2cc(Sc3ccccc3C#N)c3c(C#N)cnn3c2)cn1` [Example 539], 9 nM corresponded to half-maximal inhibition (IC50).

As for `CN[C@]1(C)CC[C@@H](n2ncc(-c3cc(Sc4ccc(F)cc4C#N)c4c(C#N)cnn4c3)c2C)CC1` [Example 352, 4-((2-cyano-4-fluorophenyl)thio)-6-(5-methyl-1-((1r,4r)-4-methyl-4-(methylamino)cyclohexyl)-1H-pyrazol-4-y)pyrazolo[1,5-a]pyridine-3-carbonitrile], 0.6 nM corresponded to half-maximal inhibition (IC50).

With `Cc1c(-c2cc(Sc3ccc(F)cc3C#N)c3c(C#N)cnn3c2)cnn1[C@@H]1CCN(C)C(C)(C)C1` [Example 388, (R)-4-((2-cyano-4-fluorophenyl)thio)-6-(5-methyl-1-(1,2,2-trimethylpiperidin-4-yl)-1H-pyrazol-4-yl)pyrazolo[1,5-a]pyridine-3-carbonitrile], 0.5 nM corresponded to half-maximal inhibition (IC50).

With `CC(=O)N1CCC(n2ncc(-c3cc(Sc4nc(C)c(F)cc4F)c4c(C#N)cnn4c3)c2C)CC1` [Example 399, 6-(1-(1-acetylpiperidin-4-yl)-5-methyl-1H-pyrazol-4-yl)-4-((3,5-difluoro-6-methylpyridin-2-yl)thio)pyrazolo[1,5-a]pyridine-3-carbonitrile], 2 nM corresponded to half-maximal inhibition (IC50).

The molecule `N#Cc1cnn2cc(-c3cnn(C(CO)CO)c3)cc(Sc3ncccc3F)c12` [Example 524, 6-(1-(1,3-dihydroxypropan-2-yl)-1H-pyrazol-4-yl)-4-((3-fluoropyridin-2-yl)thio)pyrazolo[1,5-a]pyridine-3-carbonitrile] came in with an IC50 of 3 nM.

`Cc1c(-c2cc(Sc3ncc(F)cc3F)c3c(C#N)cnn3c2)cnn1[C@@H]1CCN(C)C(C)(C)C1` [Example 390, (R)-4-((3,5-difluoropyridin-2-yl)thio)-6-(5-methyl-1-(1,2,2-trimethylpiperidin-4-yl)-1H-pyrazol-4-yl)pyrazolo[1,5-a]pyridine-3-carbonitrile]: the IC50 is 42 nM.

On to `C[C@@H](O)Cn1cc(-c2cc(Sc3ccccc3C#N)c3c(C#N)cnn3c2)cn1` [Example 567, (R)-4-((2-cyanophenyl)thio)-6-(1-(2-hydroxypropyl)-1H-pyrazol-4-yl)pyrazolo[1,5-a]pyridine-3-carbonitrile], for which the 50% inhibitory concentration (IC50) turned out to be 1 nM. Compared with the last molecule, the IC50 is about 42-fold lower.

`Cc1c(-c2cc(Sc3ccccc3C#N)c3c(C#N)cnn3c2)cnn1C` [Example 614, 4-((2-cyanophenyl)thio)-6-(1,5-dimethyl-1H-pyrazol-4-yl)pyrazolo[1,5-a]pyridine-3-carbonitrile] returned a half-inhibitory concentration (IC50) of 9 nM.

In turn, `N#Cc1ccccc1Sc1cc(-c2ccc(N3CCO[C@H](CO)C3)nc2)cn2ncc(C#N)c12` [Example 649, (S)-4-((2-cyanophenyl)thio)-6-(6-(2-(hydroxymethyl)morpholi-no)pyridin-3-yl)pyrazolo[1,5-a]pryidine-3-carbonitrile] displayed an IC50 of 0.5 nM.

As to `Cc1nn([C@H]2CC[C@@H](N(C)C)CC2)c(C)c1-c1cc(Sc2ccccc2C#N)c2c(C#N)cnn2c1` [Example 337, 4-((2-cyanophenyl)thio)-6-(1-((1s,4s)-4-(dimethylamino)cyclohex-yl)-3,5-dimethyl-1H-pyrazol-4-yl)pyrazolo[1,5-a]pyridine-3-carbonitrile], the midpoint of inhibition, the IC50, lay at 3 nM. This IC50 lies about 6-fold higher than the previous one.

`N#Cc1ccccc1Sc1cc(-c2cnn([C@H]3CCCNC3)c2)cn2ncc(C#N)c12` [Example 487, (S)-4-((2-cyanophenyl)thio)-6-(1-(piperidin-3-yl)-1H-pyrazol-4-yl)pyrazolo[1,5-a]pyridine-3-carbonitrile] gave a 50% inhibitory concentration (IC50) of 0.4 nM.

Molecule `N#Cc1cnn2cc(-c3cn([C@H]4CCCNC4)nn3)cc(Sc3ncccc3F)c12` [Example 404, (S)-4-((3-fluoropyridin-2-yl)thio)-6-(1-(piperidin-3-yl)-1H-1,2,3-triazol-4-yl)pyrazolo[1,5-a]pyridine-3-carbonitrile] returned an IC50 of 15 nM.

`Cn1cc(-c2cc(Sc3ncccc3F)c3c(C#N)cnn3c2)cn1` [Example 466, 4-((3-fluoropyridin-2-yl)thio)-6-(1-methyl-1H-pyrazol-4-yl)pyrazolo[1,5-a]pyridine-3-carbonitrile] registered a half-inhibitory concentration (IC50) of 6 nM.

Consider `Cc1ccc(Sc2cc(-c3cnn(C4CCN(C)CC4)c3C)cn3ncc(C#N)c23)c(C#N)c1` [Example 378, 4-((2-cyano-4-methylphenyl)thio)-6-(5-methyl-1-(1-methylpiperidin-4-yl)-1H-pyrazol-4-yl)pyrazolo[1,5-a]pyridine-3-carbonitrile], for which inhibition was half-maximal at 4 nM (IC50). This IC50 lies about 1.5-fold lower than the previous one.

As to `N#Cc1ccccc1Sc1cc(-c2cnn(CC[C@@H](O)CO)c2)cn2ncc(C#N)c12` [Example 650, (R)-4-((2-cyanophenyl)thio)-6-(1-(3,4-dihydroxybutyl)-1H-pyrazol-4-yl)pyrazolo[1,5-a]pyridine-3-carbonitrile], 1 nM corresponded to half-maximal inhibition (IC50). This IC50 is about 4-fold lower than that of the molecule before.

On to `Cc1nn([C@H]2CC[C@H](O)CC2)cc1-c1cc(Sc2ncccc2F)c2c(C#N)cnn2c1` [Example 442, 4-((3-fluoropyridin-2-yl)thio)-6-(1-((1r,4r)-4-hydroxycyclohexyl)-3-methyl-1H-pyrazol-4-yl)pyrazolo[1,5-a]pyridine-3-carbonitrile], for which half-maximal inhibition (IC50) was put at 8 nM.

`Cc1c(-c2cc(Sc3ccc(F)cc3C#N)c3c(C#N)cnn3c2)cnn1[C@H]1CCCN(C)C1` [Example 335, (S)-4-((2-cyano-4-fluorophenyl)thio)-6-(5-methyl-1-(1-methylpiperidin-3-yl)-1H-pyrazol-4-yl)pyrazolo[1,5-a]pyridine-3-carbonitrile] gave an IC50 of 1 nM.

In turn, `Cc1c(-c2cc(Sc3ccc(F)cc3C#N)c3c(C#N)cnn3c2)cnn1[C@H]1CC[C@H](N(C)CCO)CC1` [Example 391, 4-((2-cyano-4-fluorophenyl)thio)-6-(1-((1r,4r)-4-((2-hydroxyethyl)(methyl)ami-no)cyclohexyl)-5-methyl-1H-pyrazol-4-yl)pyrazolo[1,5-a]pyridine-3-carbonitrile] returned an IC50 of 1 nM.

Consider `Cc1c(-c2cc(Sc3ncccc3C#N)c3c(C#N)cnn3c2)cnn1[C@H]1CCCNC1` [Example 434, (S)-4-((3-cyanopyridin-2-yl)thio)-6-(5-methyl-1-(piperidin-3-yl)-1H-pyrazol-4-yl)pyrazolo[1,5-a]pyridine-3-carbonitrile], for which the IC50 stood at 1 nM.
